{"source": "patent US20040067531A1", "about": "“Methods of modulating protein tyrosine kinase function with substituted indolinone compounds” (SUGEN, INC., priority 1997, published 2004)", "target": "PDGF receptor (Homo sapiens, UniProt P09619)", "sequence (P09619 33-1106)": "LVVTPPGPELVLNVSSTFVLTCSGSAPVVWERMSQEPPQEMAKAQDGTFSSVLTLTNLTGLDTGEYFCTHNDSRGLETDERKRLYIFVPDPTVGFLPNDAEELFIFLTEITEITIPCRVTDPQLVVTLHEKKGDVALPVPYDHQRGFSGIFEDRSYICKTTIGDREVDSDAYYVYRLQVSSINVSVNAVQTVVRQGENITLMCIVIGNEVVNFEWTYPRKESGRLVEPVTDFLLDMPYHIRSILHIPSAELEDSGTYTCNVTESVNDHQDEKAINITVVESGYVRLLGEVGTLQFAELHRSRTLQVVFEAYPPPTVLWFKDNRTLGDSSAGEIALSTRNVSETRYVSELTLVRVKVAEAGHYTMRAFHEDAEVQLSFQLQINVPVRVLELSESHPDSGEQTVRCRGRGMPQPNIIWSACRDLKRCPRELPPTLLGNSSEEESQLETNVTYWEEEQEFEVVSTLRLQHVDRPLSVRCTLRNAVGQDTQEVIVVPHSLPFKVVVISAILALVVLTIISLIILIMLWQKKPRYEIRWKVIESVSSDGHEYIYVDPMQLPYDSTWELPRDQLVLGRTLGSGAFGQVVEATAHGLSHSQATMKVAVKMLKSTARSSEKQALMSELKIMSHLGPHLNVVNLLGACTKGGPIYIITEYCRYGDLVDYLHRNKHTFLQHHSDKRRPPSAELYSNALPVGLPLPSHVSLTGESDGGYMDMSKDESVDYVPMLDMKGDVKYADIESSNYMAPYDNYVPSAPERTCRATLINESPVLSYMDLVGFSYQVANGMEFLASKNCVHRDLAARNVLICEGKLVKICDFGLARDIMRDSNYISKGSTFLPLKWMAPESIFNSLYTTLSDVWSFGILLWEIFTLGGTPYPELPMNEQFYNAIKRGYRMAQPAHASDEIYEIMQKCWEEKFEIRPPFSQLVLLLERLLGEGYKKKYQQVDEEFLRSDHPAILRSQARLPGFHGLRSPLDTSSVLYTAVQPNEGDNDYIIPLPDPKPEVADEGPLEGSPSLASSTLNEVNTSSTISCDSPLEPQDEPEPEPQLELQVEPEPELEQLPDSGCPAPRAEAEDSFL", "test": "ELISA assay measuring the kinase activity of the PDGF receptor in U1242 cells", "assay_type": "cell-based", "conditions": "ligand stimulation, phosphotyrosine ELISA", "method": "All cell culture media, glutanine, and fetal bovine serum were purchased from Gibco Life Technologies (Grand Island, N.Y.) unless otherwise specified. All cells were grown in a humid atmosphere of 90-95% air and 5-10% CO2 at 37° C. All cell lines were routinely subcultured twice a week and were negative for mycoplasma as determined by the Mycotect method (Gibco).\nFor ELISA assays, cells (U1242, obtained from Joseph Schlessinger, NYU) were grown to 80-90% confluency in growth medium (MEM with 10% FBS, NEAA, 1 mM NaPyr and 2 mM GLN) and seeded in 96-well tissue culture plates in 0.5% serum at 25,000 to 30,000 cells per well. After overnight incubation in 0.5% serum-containing medium cells were changed to serum-free medium and treated with test compound for 2 hr in a 5% CO21 37° C. incubator. […] Absorbance at 410 nm with a reference wavelength of 630 nm was recorded about 15 to 30 min after ABTS addition.\nThe IC50 values were measured for several of the compounds of the invention.", "note": "pIC50: −log10 of the molar value."}
{"smiles": "O=C(O)CCc1c(C=C2C(=O)Nc3ccc(Cl)cc32)[nH]c2c1CCCC2", "note": "[IN-002, 3-[2-(5-Chloro-2-oxo-1,2-dihydro-indol-3-ylidenemethyl)-4,5.6,7-tetrahydro-1H-indol-3-yl]-propionic acid]", "values": [{"measurement": "pIC50", "value": 7.30}]}
